Residue numbers refer to the chain shown, from its start.

Assay [1] addresses T1, Msh2-Msh3 (Saccharomyces cerevisiae, UniProt P25336+P25847).
T1 sequence (P25847 1-964): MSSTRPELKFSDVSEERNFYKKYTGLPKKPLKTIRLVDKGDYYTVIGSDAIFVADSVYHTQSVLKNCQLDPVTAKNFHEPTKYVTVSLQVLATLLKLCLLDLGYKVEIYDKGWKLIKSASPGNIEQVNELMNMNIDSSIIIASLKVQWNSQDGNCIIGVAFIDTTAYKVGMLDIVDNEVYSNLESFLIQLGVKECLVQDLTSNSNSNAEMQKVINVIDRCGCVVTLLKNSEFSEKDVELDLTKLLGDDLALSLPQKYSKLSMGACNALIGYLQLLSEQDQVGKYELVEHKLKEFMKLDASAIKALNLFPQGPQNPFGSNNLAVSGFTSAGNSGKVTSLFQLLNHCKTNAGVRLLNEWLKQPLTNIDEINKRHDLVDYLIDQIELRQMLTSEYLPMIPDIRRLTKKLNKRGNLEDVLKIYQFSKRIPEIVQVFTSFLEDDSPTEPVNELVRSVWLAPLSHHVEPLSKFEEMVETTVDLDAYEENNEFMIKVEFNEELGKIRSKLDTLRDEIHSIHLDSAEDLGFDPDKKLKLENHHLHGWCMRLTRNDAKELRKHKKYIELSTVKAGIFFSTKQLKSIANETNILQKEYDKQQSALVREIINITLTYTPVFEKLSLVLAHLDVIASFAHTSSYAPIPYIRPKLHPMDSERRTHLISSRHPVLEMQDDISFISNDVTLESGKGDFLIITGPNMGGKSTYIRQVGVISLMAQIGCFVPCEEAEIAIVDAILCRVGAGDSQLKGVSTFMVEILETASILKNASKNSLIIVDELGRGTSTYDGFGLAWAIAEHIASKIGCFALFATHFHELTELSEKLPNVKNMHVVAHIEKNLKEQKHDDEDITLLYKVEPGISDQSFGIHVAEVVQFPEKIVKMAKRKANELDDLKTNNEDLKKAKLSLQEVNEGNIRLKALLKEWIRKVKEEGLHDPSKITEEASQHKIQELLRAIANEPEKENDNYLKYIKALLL
T1 sequence (P25336 1-1018): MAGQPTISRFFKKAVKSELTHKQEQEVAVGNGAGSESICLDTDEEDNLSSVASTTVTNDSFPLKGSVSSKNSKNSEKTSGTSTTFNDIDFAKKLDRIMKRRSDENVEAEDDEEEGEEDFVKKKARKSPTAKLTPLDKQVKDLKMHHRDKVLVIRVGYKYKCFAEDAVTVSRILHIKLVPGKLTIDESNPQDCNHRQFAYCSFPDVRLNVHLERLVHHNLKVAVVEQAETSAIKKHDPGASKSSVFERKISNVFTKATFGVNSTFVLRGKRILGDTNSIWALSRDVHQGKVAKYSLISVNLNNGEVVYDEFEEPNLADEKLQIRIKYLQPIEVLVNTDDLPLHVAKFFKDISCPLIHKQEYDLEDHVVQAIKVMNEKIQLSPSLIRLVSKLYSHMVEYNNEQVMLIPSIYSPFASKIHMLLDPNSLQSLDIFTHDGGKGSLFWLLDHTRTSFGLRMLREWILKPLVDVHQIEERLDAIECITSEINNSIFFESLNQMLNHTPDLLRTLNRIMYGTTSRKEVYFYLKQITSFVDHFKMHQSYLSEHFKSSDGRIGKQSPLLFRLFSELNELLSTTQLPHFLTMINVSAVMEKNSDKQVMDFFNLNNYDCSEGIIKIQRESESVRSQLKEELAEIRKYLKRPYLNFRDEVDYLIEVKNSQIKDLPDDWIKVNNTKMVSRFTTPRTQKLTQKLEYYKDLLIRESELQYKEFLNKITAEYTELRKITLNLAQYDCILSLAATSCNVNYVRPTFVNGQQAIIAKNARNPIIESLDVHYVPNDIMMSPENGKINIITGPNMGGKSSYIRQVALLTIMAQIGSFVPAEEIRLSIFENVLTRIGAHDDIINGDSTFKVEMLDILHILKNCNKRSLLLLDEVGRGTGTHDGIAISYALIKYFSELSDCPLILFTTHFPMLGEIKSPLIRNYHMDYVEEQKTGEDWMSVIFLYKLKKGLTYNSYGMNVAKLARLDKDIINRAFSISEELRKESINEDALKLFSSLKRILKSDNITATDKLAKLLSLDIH
Put plainly: nitrocellulose filter binding, competition with […]-ATPγS after ADP pre-binding. The note with it: no DNA; 0.5 mM ADP, 8 μM ATPγS, 50 nM protein.

Assay [2] addresses T1, Msh2-Msh3. Kind of assay: ATPγS titration into steady-state coupled ATPase assay. It is filed as biochemical.
The target in assay [3] is T2, Msh2-Msh3 (Saccharomyces cerevisiae, UniProt P25336+P25847, P25336:Y942A).
T2 sequence (P25847 1-964): T1 sequence (P25847 1-964)
T2 sequence (P25336 1-1018 Y942A): T1 sequence (P25336 1-1018) with Y942A
The assay is described as above. It is filed as biochemical.

Take `Nc1ncnc2c1ncn2[C@@H]1O[C@H](COP(=O)(O)OP(=O)(O)O)[C@@H](O)[C@H]1O` [ADP]: in assay [1], the “fraction of ATPγS bound relative to no ADP, 30 s” value is recorded as 0.54 ± 0.15 fraction.
By IC50 is commonly meant the concentration that inhibits the measured activity by half. A low value points to greater potency in that assay. Regarding `Nc1ncnc2c1ncn2[C@@H]1O[C@H](CO[P@](=O)(O)O[P@](=O)(O)O[P@@](=O)(O)S)[C@@H](O)[C@H]1O` [ATPγS], the figures for the IC50 in assay [2] and in assay [3] were 6.3 mM and 0.8 mM, respectively.

Values taken from article PMC4059350 (DNA repair, 2014).
